Measurements taken from paper PMC8698454, “Anti-Colonization Effect of Au Surfaces with Self-Assembled Molecular Monolayers Functionalized with Antimicrobial Peptides on S. epidermidis” (Antibiotics, 2021).
Where two headings read alike, the source gives them in different places.

Experiments:
[1] = tested on: Gram-positive bacteria; assay type: cell-based, S. aureus and S. epidermidis; settings: text summary over S. aureus ATCC 9144 and S. epidermidis 1457
Experimental: (§1) The minimal inhibitory concentration (MIC) of peptides 1a, 1b, 2a, and 2b were determined by broth microdilution according to the Clinical Laboratory Standard Institute (CLSI) method […]-A9. The MICs of the peptides 1c, 1d, 2c, and 2d were determined by broth dilution according to the European Committee for Antimicrobial Susceptibility Testing (EUCAST). Final concentrations of 0.5-256 μg/mL were tested against a panel of reference bacteria-S. aureus (ATCC 9144), S. epidermidis (1457), E. coli (ATCC 25922), and P. aeruginosa (ATCC 27853). Each strain was tested in biological triplicate. The MIC values were defined as the lowest concentration of the peptides resulting in no visual growth.

[2] = tested on: Escherichia coli ATCC 25922; assay type: cell-based; settings: for MIC E. coli ATCC 25922: Table S3
Method in brief: (§2)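 MICs by broth microdilution following CLSI for one peptide set and EUCAST broth dilution for the other. Tested at 0.5–256 μg/mL final against reference strains in biological triplicate. MIC taken as the lowest concentration giving no visible growth.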

[3] = tested on: Staphylococcus epidermidis 1457; assay type: cell-based; settings: for MIC S. epidermidis 1457: Table S3
Method in brief: as §2

[4] = tested on: Staphylococcus aureus ATCC 9144; assay type: cell-based; settings: for MIC S. aureus ATCC 9144: Table S3
Method in brief: as §2

[5] = tested on: Pseudomonas aeruginosa ATCC 27853; assay type: cell-based; settings: for MIC P. aeruginosa ATCC 27853: Table S3
Method in brief: as §2

[6] = tested on: Gram-negative bacteria; assay type: cell-based, E. coli and P. aeruginosa; settings: text summary over E. coli ATCC 25922 and P. aeruginosa ATCC 27853
Experimental: as §1

[7] = technical replicate 1, biological replicate BR1
[8] = technical replicate 1, biological replicate BR2
[9] = technical replicate 1, biological replicate BR3
[10] = technical replicate 2, biological replicate BR1
[11] = technical replicate 2, biological replicate BR2
[12] = technical replicate 2, biological replicate BR3
[13] = technical replicate 3, biological replicate BR1
[14] = technical replicate 3, biological replicate BR2
[15] = technical replicate 3, biological replicate BR3

N3-PEG200-RBBRF [2a, azidopeptide N3-PEG200-RBBRF, B = biphenylalanine, amidated C-terminus]
MIC against Gram-positive bacteria [1]: 8 µg/mL
Antimicrobial Activity (MIC) E. coli ([2]; ATCC 25922, broth microdilution CLSI M07-A9 (1a,1b,2a,2b) or broth dilution EUCAST (1c,1d,2c,2d), 0.5-256 µg/mL tested, biological triplicate, no visual growth): 64 µg/mL
MIC E. coli ATCC 25922 [2, 7]: 64 µg/mL
MIC E. coli ATCC 25922 [2, 8]: 64 µg/mL
MIC E. coli ATCC 25922 [2, 9]: 64 µg/mL
MIC E. coli ATCC 25922 [2, 10]: 64 µg/mL
MIC E. coli ATCC 25922 [2, 11]: 64 µg/mL
MIC E. coli ATCC 25922 [2, 12]: 64 µg/mL
MIC E. coli ATCC 25922 [2, 13]: 64 µg/mL
MIC E. coli ATCC 25922 [2, 14]: 64 µg/mL
MIC E. coli ATCC 25922 [2, 15]: 64 µg/mL
MIC S. epidermidis 1457 [3, 7]: 4 µg/mL
MIC S. epidermidis 1457 [3, 8]: 8 µg/mL
MIC S. epidermidis 1457 [3, 9]: 8 µg/mL
MIC S. epidermidis 1457 [3, 10]: 4 µg/mL
MIC S. epidermidis 1457 [3, 11]: 8 µg/mL
MIC S. epidermidis 1457 [3, 12]: 8 µg/mL
MIC S. epidermidis 1457 [3, 13]: 4 µg/mL
MIC S. epidermidis 1457 [3, 14]: 8 µg/mL
MIC S. epidermidis 1457 [3, 15]: 8 µg/mL
Antimicrobial Activity (MIC) S. epidermidis ([3]; strain 1457, broth microdilution CLSI M07-A9 (1a,1b,2a,2b) or broth dilution EUCAST (1c,1d,2c,2d), 0.5-256 µg/mL tested, biological triplicate, no visual growth): 8 µg/mL
Antimicrobial Activity (MIC) S. aureus ([4]; ATCC 9144, broth microdilution CLSI M07-A9 (1a,1b,2a,2b) or broth dilution EUCAST (1c,1d,2c,2d), 0.5-256 µg/mL tested, biological triplicate, lowest concentration with no visual growth): 8 µg/mL
MIC S. aureus ATCC 9144 [4, 7]: 8 µg/mL
MIC S. aureus ATCC 9144 [4, 8]: 8 µg/mL
MIC S. aureus ATCC 9144 [4, 9]: 8 µg/mL
MIC S. aureus ATCC 9144 [4, 10]: 8 µg/mL
MIC S. aureus ATCC 9144 [4, 11]: 8 µg/mL
MIC S. aureus ATCC 9144 [4, 12]: 8 µg/mL
MIC S. aureus ATCC 9144 [4, 13]: 8 µg/mL
MIC S. aureus ATCC 9144 [4, 14]: 8 µg/mL
MIC S. aureus ATCC 9144 [4, 15]: 8 µg/mL
Antimicrobial Activity (MIC) P. aeruginosa ([5]; ATCC 27853, broth microdilution CLSI M07-A9 (1a,1b,2a,2b) or broth dilution EUCAST (1c,1d,2c,2d), 0.5-256 µg/mL tested, biological triplicate, no visual growth): 64 µg/mL
MIC P. aeruginosa ATCC 27853 [5, 7]: 64 µg/mL
MIC P. aeruginosa ATCC 27853 [5, 8]: 64 µg/mL
MIC P. aeruginosa ATCC 27853 [5, 9]: 64 µg/mL
MIC P. aeruginosa ATCC 27853 [5, 10]: 64 µg/mL
MIC P. aeruginosa ATCC 27853 [5, 11]: 64 µg/mL
MIC P. aeruginosa ATCC 27853 [5, 12]: 64 µg/mL
MIC P. aeruginosa ATCC 27853 [5, 13]: 64 µg/mL
MIC P. aeruginosa ATCC 27853 [5, 14]: 64 µg/mL
MIC P. aeruginosa ATCC 27853 [5, 15]: 64 µg/mL
MIC against Gram-negative bacteria [6]: 64 µg/mL
